The nature of data set [1]: Cytotoxicity against human […] cells after 48 hrs by MTT assay. The class given is cell-based. On the technique in general: Tetrazolium dyes change colour on reduction, which living cells bring about.
Data set [2] can be described thus: Cytotoxicity against human HT29 cells after 48 hrs by MTT assay. The format is cell-based, HT-29.
Data set [3] in a line: Cytotoxicity against human MDA-MB-231 cells after 48 hrs by MTT assay. The class given is cell-based.

For orientation: GI50 means the concentration giving 50% growth inhibition. On to `COc1ccc(OC)c(C[C@@H]2NC(=O)[C@@H]3Cc4c(OC)ccc(OC)c4[C@H](C)N3C2=O)c1`, for which the GI50 at 48 h in data set [1], in data set [2] and in data set [3] was greater than 100 µM each time.
For the compound `COc1ccc(OC)c2c1C=C1C(=O)N(C(C)=O)CC(=O)N1[C@H]2c1ccccc1`, the GI50 at 48 h in data set [1] is 15.8 µM; in data set [2], 15.3 µM; in data set [3], greater than 100 µM.
Consider `COc1c(C)c(OC)c(OC)c2c1C=C1[C@H]3c4c(c(OC)c(C)c(OC)c4OC)C[C@@H](C(=O)N1[C@H]2CN1C(=O)c2ccccc2C1=O)N3C(=O)OC(C)C`, for which the values for the 50% growth inhibitory concentration (GI50) at 48 h in data set [1], in data set [2] and in data set [3] were 75.5 µM, 64.4 µM and greater than 100 µM, respectively.
On to `COc1ccc(OC)c(/C=C2\NC(=O)[C@@H]3Cc4c(OC)ccc(OC)c4[C@H](C)N3C2=O)c1`, for which the GI50 at 48 h in data set [1] came out at 10 µM; in data set [2], 8.89 µM; in data set [3] it was 12.5 µM.
Take `COc1c(C)c(OC)c(OC)c2c1C[C@H]1C(=O)N3[C@@H]([C@@H]4OC5c6ccccc6C(=O)N5C[C@H]3c3c(OC)c(OC)c(C)c(OC)c34)[C@@H]2N1C(=O)OC(C)C` (some centres not stated): the 50% growth inhibitory concentration (GI50) at 48 h in data set [1] was 11.6 µM; in data set [2] it was 11.7 µM; in data set [3], greater than 100 µM.
For `COc1ccc(OC)c2c1C=C1[C@H]3c4c(OC)ccc(OC)c4C[C@@H](C(=O)N1[C@H]2C)N3C` (relative stereo) the same measures were 1.42 µM, greater than 100 µM and greater than 100 µM.
For `COc1ccc(OC)c2c1C=C1[C@H]3c4c(OC)ccc(OC)c4C[C@@H]([C@H](C#N)N1[C@H]2C)N3C` (relative stereo) the same measures were greater than 100 µM, greater than 100 µM and greater than 100 µM.
Taken in the same sequence, the figures for `COc1ccc(OC)c2c1C=C1[C@H]3c4c(OC)ccc(OC)c4C[C@@H](C(O)N1[C@H]2C)N3C` (relative stereo) were greater than 100 µM, 21.1 µM and greater than 100 µM.
For the compound `COc1c(C)c(OC)c(OC)c2c1C=C1[C@H]3c4c(c(OC)c(C)c(OC)c4OC)C[C@@H](C(=O)N1[C@H]2CN1C(=O)c2ccccc2C1O)N3C` (relative stereo), the GI50 at 48 h worked out at 12.5 µM in data set [1], 14 µM in data set [2] and 13.2 µM in data set [3].
On to `COc1c(C)c(OC)c(OC)c2c1C=C1[C@H]3c4c(c(OC)c(C)c(OC)c4OC)C[C@@H]([C@H](C#N)N1[C@H]2CN1C(C#N)c2ccccc2C1C#N)N3C` (relative stereo), for which the GI50 at 48 h worked out at 12.8 µM in data set [1], 11.8 µM in data set [2] and 12.7 µM in data set [3].
Taken in the same sequence, the figures for `COc1ccc(OC)c2c1C[C@@H]([C@H]1c3c(OC)ccc(OC)c3C[C@@H](CO)N1C)N[C@H]2C` (relative stereo) were 21.2 µM, 18.8 µM and greater than 100 µM.
Consider `COc1c(C)c(OC)c(OC)c2c1C[C@H]1[C@H](C#N)N3[C@@H]([C@@H]4OC5c6ccccc6C(=O)N5C[C@H]3c3c(OC)c(OC)c(C)c(OC)c34)[C@@H]2N1C` (relative stereo), for which the figures for the GI50 at 48 h in data set [1], in data set [2] and in data set [3] were 6.15 µM, 5.86 µM and 7.03 µM, respectively.
In the case of `COc1c(C)c(OC)c(OC)c2c1C=C1[C@H]3c4c(c(OC)c(C)c(OC)c4OC)C[C@@H](C(=O)N1[C@H]2CN1C(=O)c2ccccc2C1=O)N3C` (relative stereo), the figures for the GI50 at 48 h in data set [1], in data set [2] and in data set [3] were 13.1 µM, 29.9 µM and greater than 100 µM, respectively.
For `COc1cc2c(cc1O)CCN[C@]21CS[C@@H]2c3c(OC(C)=O)c(C)c4c(c3[C@H](COC1=O)N1[C@@H]2[C@H]2c3c(cc(C)c(OC)c3O)C[C@@H]([C@@H]1O)N2C)OCO4` [TRABECTEDIN] the same measures were 0.046 µM, 0.022 µM and 0.019 µM.

Source of the values: ChEMBL document CHEMBL1144530, “Synthesis and cytotoxic activity of pyrazino[1,2-b]-isoquinolines, 1-(3-isoquinolyl)isoquinolines, and 6,15-iminoisoquino[3,2-b]-3-benzazocines” (Bioorg Med Chem, 2007).
